Reference: ChEMBL document CHEMBL4417621, “Methods to identify tas2r modulators” (2013)

What was measured:
Type in all cases: functional, cell-based
[1] = molecular target: T1, Taste receptor type 2 member 46 (Homo sapiens) (UniProt P59540); assay: Activation of full-length human TAS2R46 expressed in HEK293T/Galpha16-gustducin 44 cells assessed as effect on calcium flux by measuring deltaF/F0 ratio at 12.5 mM by Fluo-4 dye based FLIPR assay
T1 sequence (whole entry): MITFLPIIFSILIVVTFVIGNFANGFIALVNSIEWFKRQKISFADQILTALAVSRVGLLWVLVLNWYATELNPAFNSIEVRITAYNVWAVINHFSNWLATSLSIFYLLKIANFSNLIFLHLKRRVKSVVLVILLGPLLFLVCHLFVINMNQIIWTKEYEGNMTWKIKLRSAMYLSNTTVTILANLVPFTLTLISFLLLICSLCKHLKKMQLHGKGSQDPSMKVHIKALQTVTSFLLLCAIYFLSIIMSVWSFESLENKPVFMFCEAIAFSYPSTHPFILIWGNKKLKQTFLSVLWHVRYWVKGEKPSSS

[2] = molecular target: T2, Taste receptor type 2 member 31 (Homo sapiens) (UniProt P59538); assay: Activation of full-length human TAS2R44 expressed in HEK293T/Galpha16-gustducin 44 cells assessed as effect on calcium flux by measuring deltaF/F0 ratio at 0.7813 mM by Fluo-4 dye based FLIPR assay (reference value: […] +/ - 0.002)
T2 sequence (whole entry): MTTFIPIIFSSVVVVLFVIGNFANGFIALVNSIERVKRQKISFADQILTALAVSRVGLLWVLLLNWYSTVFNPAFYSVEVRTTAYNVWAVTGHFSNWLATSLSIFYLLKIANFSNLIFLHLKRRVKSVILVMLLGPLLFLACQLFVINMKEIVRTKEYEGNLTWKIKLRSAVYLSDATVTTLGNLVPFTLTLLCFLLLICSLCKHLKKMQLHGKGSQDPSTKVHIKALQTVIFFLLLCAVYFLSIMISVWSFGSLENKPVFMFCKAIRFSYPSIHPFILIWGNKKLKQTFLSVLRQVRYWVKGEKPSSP

[3] = molecular target: T2, Taste receptor type 2 member 31 (Homo sapiens); assay: Activation of full-length human TAS2R44 expressed in HEK293T/Galpha16-gustducin 44 cells assessed as effect on calcium flux by measuring deltaF/F0 ratio at 0.3906 mM by Fluo-4 dye based FLIPR assay (reference value: […] +/ - 0.002)
[4] = molecular target: T1, Taste receptor type 2 member 46 (Homo sapiens); assay: Activation of full-length human TAS2R46 expressed in HEK293T/Galpha16-gustducin 44 cells assessed as effect on calcium flux by measuring deltaF/F0 ratio at 6.25 mM by Fluo-4 dye based FLIPR assay
[5] = molecular target: T1, Taste receptor type 2 member 46 (Homo sapiens); assay: Activation of full-length human TAS2R46 expressed in HEK293T/Galpha16-gustducin 44 cells assessed as effect on calcium flux by measuring deltaF/F0 ratio at 0.7813 mM by Fluo-4 dye based FLIPR assay
[6] = molecular target: T3, Taste receptor type 2 member 10 (Homo sapiens) (UniProt Q9NYW0); assay: Activation of full-length human TAS2R10 expressed in HEK293T/Galpha16-gustducin 44 cells assessed as effect on calcium flux by measuring deltaF/F0 ratio at 0.3906 mM by Fluo-4 dye based FLIPR assay
T3 sequence (whole entry): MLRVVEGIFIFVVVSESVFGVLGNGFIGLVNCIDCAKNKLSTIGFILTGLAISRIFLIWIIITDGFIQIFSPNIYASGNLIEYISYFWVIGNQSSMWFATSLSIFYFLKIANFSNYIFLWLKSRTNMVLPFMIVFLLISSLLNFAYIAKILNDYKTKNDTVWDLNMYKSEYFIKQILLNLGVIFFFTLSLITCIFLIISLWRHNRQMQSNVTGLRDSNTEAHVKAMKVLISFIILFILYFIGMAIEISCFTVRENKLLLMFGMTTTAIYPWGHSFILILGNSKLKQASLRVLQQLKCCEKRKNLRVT

[7] = molecular target: T1, Taste receptor type 2 member 46 (Homo sapiens); assay: Activation of full-length human TAS2R46 expressed in HEK293T/Galpha16-gustducin 44 cells assessed as effect on calcium flux by measuring deltaF/F0 ratio at 100 mM by Fluo-4 dye based FLIPR assay
[8] = molecular target: T3, Taste receptor type 2 member 10 (Homo sapiens); assay: Activation of full-length human TAS2R10 expressed in HEK293T/Galpha16-gustducin 44 cells assessed as effect on calcium flux by measuring deltaF/F0 ratio at 0.7813 mM by Fluo-4 dye based FLIPR assay
[9] = molecular target: T4, Taste receptor type 2 member 1 (Homo sapiens, UniProt Q9NYW7); assay: (§1) Activation of full-length human TAS2R1 expressed in HEK293T/Galpha16-gustducin 44 cells assessed as effect on calcium flux by measuring deltaF/F0 ratio by Fluo-4 dye based FLIPR assay
T4 sequence (Q9NYW7 whole entry): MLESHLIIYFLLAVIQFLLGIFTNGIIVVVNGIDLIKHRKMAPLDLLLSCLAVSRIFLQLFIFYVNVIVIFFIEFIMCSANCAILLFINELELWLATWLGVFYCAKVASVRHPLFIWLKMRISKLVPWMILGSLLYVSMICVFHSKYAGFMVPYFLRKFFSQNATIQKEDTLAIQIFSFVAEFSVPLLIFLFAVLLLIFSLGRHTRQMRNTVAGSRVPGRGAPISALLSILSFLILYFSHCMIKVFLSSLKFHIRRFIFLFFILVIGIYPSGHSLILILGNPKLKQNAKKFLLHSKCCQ

[10] = molecular target: T5, Taste receptor type 2 member 1 (Homo sapiens) (UniProt Q9NYW7); assay: as §1
T5 sequence (whole entry): T4 sequence (Q9NYW7 whole entry)

[11] = molecular target: T2, Taste receptor type 2 member 31 (Homo sapiens); assay: Activation of full-length human TAS2R44 expressed in HEK293T/Galpha16-gustducin 44 cells assessed as effect on calcium flux by measuring deltaF/F0 ratio at 100 mM by Fluo-4 dye based FLIPR assay (reference value: 0.021 +/ - 0.012)
[12] = molecular target: T1, Taste receptor type 2 member 46 (Homo sapiens); assay: Activation of full-length human TAS2R46 expressed in HEK293T/Galpha16-gustducin 44 cells assessed as effect on calcium flux by measuring deltaF/F0 ratio at 25 mM by Fluo-4 dye based FLIPR assay
[13] = molecular target: T3, Taste receptor type 2 member 10 (Homo sapiens); assay: Activation of full-length human TAS2R10 expressed in HEK293T/Galpha16-gustducin 44 cells assessed as effect on calcium flux by measuring deltaF/F0 ratio at 100 mM by Fluo-4 dye based FLIPR assay
[14] = molecular target: T2, Taste receptor type 2 member 31 (Homo sapiens); assay: Activation of full-length human TAS2R44 expressed in HEK293T/Galpha16-gustducin 44 cells assessed as effect on calcium flux by measuring deltaF/F0 ratio at 50 mM by Fluo-4 dye based FLIPR assay (reference value: […] +/ - 0.016)
[15] = molecular target: T3, Taste receptor type 2 member 10 (Homo sapiens); assay: Activation of full-length human TAS2R10 expressed in HEK293T/Galpha16-gustducin 44 cells assessed as effect on calcium flux by measuring deltaF/F0 ratio at 25 mM by Fluo-4 dye based FLIPR assay
[16] = molecular target: T5, Taste receptor type 2 member 1 (Homo sapiens); assay: Activation of full-length human TAS2R1 expressed in HEK293T/Galpha16-gustducin 44 cells assessed as effect on calcium flux by measuring deltaF/F0 ratio at 0.7813 mM by Fluo-4 dye based FLIPR assay
[17] = molecular target: T1, Taste receptor type 2 member 46 (Homo sapiens); assay: Activation of full-length human TAS2R46 expressed in HEK293T/Galpha16-gustducin 44 cells assessed as effect on calcium flux by measuring deltaF/F0 ratio by Fluo-4 dye based FLIPR assay

Ratio [1]: 0.075
Ratio [2]: 0.025
Ratio [3]: 0.023
Ratio [4]: 0.057
Ratio [5]: 0.038
Ratio [6]: 0.05
Ratio [7]: 0.258
Ratio [8]: 0.05
EC50 [9]: 36.3 mM
Activity [10]: Dose-dependent effect
Ratio [11]: 0.26
Ratio [12]: 0.106
Ratio [13]: 0.437
Ratio [14]: 0.256
Ratio [15]: 0.087
Ratio [16]: 0.05
Activity [17]: Dose-dependent effect
Structure (SMILES): OC[C@H]1O[C@H](O[C@]2(CCl)O[C@H](CCl)[C@@H](O)[C@@H]2O)[C@H](O)[C@@H](O)[C@H]1Cl [SUCRALOSE]
